Assay results as given in US20240190865A1, “T-TYPE CALCIUM CHANNEL ANTAGONISTS AND USES THEREOF” (THE BOARD OF TRUSTEES OF THE LELAND STANFORD JUNIOR …, priority 2021, published 2024).
Entries after “also recorded” stand apart in the source; their conditions may differ. Like-named read-outs stand apart in the source and are kept apart here. Each block holds one molecule with its values, some of them ahead of it.

Columns and labels:
Miro1 [1] = assay: Miro1 reduction after compound administration, Western blot; assay type: cell-based; conditions: Western blot method
mutant SNCA flies = assay: Parkinson's disease fly model, locomotion (negative geotaxis Performance Index); assay type: in vivo; conditions: PD fly model (mutant SNCA flies), 2.5 μM in feed for 10 days
Description: The Parkinson's disease (PD) fly model was used as described in Hsieh C-H, Li L, Vanhauwaert R, Nguyen KT, Davis M D, Bu G, et al. Miro1 Marks Parkinson's Disease Subset and Miro1 Reducer Rescues Neuron Loss in Parkinson's Models. Cell Metab. 2019; 1131-1140. The average Performance Index (PI) (negative geotaxis) was evaluated. Briefly, adult flies were gently tapped to the base of a modified 25 ml climbing tube and their climbing progress was recorded after 45 sec. Three populations of flies were assessed, and for each population, flies were examined 3 times per experiment. The recorded values were used to calculate the average PI.
Feeding PD Flies with a Calcium Channel Blocker Rescues Locomotion Deficits. Benidipine was tested in a PD fly model (mutant SNCA flies) and the flies examined for their locomotion.

Miro1 [2] = assay: Miro1 fibroblast assay (CCCP challenge, Miro1 Western blot); assay type: cell-based; conditions: skin fibroblasts from human Parkinson's disease patients, CCCP 40 μM 24 hr; read-out: Fibroblast IC50 (nM), Miro1 reduction
Description: Fibroblast Challenge and Miro1 Western blot: Skin fibroblasts were obtained from human Parkinson's disease (PD) patients. CCCP was applied at 40 μM for 24 hr to fibroblasts before cells were lysed in RIPA lysis buffer with 0.25 mM PMSF and protease inhibitors. Lysates were cleared by centrifugation at 17,000×g for 10 min at 4° C., and supernatants were run in an SDS-PAGE for Western blotting. After electrophoresis, nitrocellulose membranes (Bio-Rad) were used in wet transfer. Transferred membranes were first blocked for 1 hr in phosphate-buffered saline (PBS) containing 5% fat-free milk and 0.1% tween-20, and then incubated with the following primary antibodies: rabbit anti-Miro1 (HPA010687, Sigma-Aldrich) at 1:1,000, mouse anti-ATP50 (AB14730, Abcam) at 1:5,000, mouse anti-β-Actin (A00702, Genscript) at 1:3,000, or rabbit anti-VDAC (4661S, Cell Signaling Technology) at 1:1,000 at 4° C. overnight in blocking buffer. West Dura ECL reagents (GE Healthcare) were used for ECL immunoblotting with HRP-conjugated goat anti-mouse or anti-rabbit, anti-mouse IgG (Jackson ImmunoResearch Laboratories) at 1:5-10,000. Membranes were exposed to UltraCruz autoradiography films (Santa Cruz Biotechnology) and developed on a Konica Minolta SRX-101A developer.
T-type calcium channel antagonists that could reduce Miro1 level were tested in the above PD fibroblast assay.

Miro1 [3] = assay: Rescue of Miro1 deficit in P301L tau donor fibroblasts (FCCP challenge, Miro1 immunocytochemistry); assay type: cell-based, human
Description: The compound of Example 15 rescued Miro1 deficit in P301L tau donor at risk for developing frontotemporal dementia (FTD). Method: A fibroblast was obtained from a non-symptomatic at risk carrier of the pathogenic P301L mutation in the MAPT/Tau gene, a highly penetrant risk factor for frontotemporal dementia (FTD). NINDS line ID: ND32956, collected from a person. Fibroblasts were seeded into 96-well assay plates. After 24 hours, cells were pre-treated with either vehicle (DMSO) or a dose-response of Example 15 compound. After 6 hrs of pre-treatment, cells were challenged with the mitochondrial stressor FCCP for 14 hours. After 14 hours of challenge, cells were fixed in paraformaldehyde and a standard immunocytochemistry protocol was followed to stain for Miro1 using a specific antibody. Images were acquired on the Yokogawa CQ1 confocal high-content imaging platform and the signal from the Miro1 antibody was quantified. Average Miro1 signal intensity was quantified from ˜400 cells/condition.
Similar to the method illustrated in Example 64, a Miro1 ratio could be calculated based on the Miro1 level after treatment of fibroblasts with FCCP compared with a control Miro1 level measured from fibroblasts that were not treated.

[4] = Brain penetration in mice; assay type: in vivo; conditions: male C57BL/6 mice; for concentration at 4 h: mouse, brain, 4 hours post-dose
Description: Male C57BL/6 mice at 6-8 weeks were dosed once with Example 15 in two experiments (N=3 per timepoint) at 1 mg/kg IV or 10 mg/kg PO, and then compound concentration was measured at various times up to 24 hours. Dosing solutions were prepared of Example 15 in 0.2 mg/mL (IV) or 1 mg/mL (PO) in 5% dimethylacetamide, 5% Solutol HS 15, 90% saline solution prior to use. Compound was administered either IV by tail vein injection or PO by oral gavage.
Blood collection: The animal was restrained manually at the designated time points, approximately 110 μL of blood sample was collected via facial vein into K2EDTA tubes. Blood sample was put on ice and centrifuged at 2000 g for 5 mins to obtain plasma sample within 15 minutes.
Brain collection: After the blood collection, the animals were euthanized via CO2. The whole brain was collected, rinsed with cold saline, dried on filtrate paper, weighed, and snap frozen by placing into dry-ice.
The brain penetrance of Example 15 was calculated using mouse plasma/brain PK and relative mouse plasma and brain homogenate binding. […] For instance, at 4 hours post-dose: Example 15 brain concentration>100 ng/mL (IV); Example 15 brain concentration>1000 ng/mL (PO).

[5] = In vivo pharmacokinetics in rats; parameters: species or system Sprague-Dawley rats
Description: Fasted male Sprague-Dawley rats between 6 to 8 weeks of age were dosed with calcium channel antagonists of the present disclosure to evaluate in vivo pharmacokinetics. Each compound was formulated in 5% DMAC+5% Solutol HS15+90% Saline to yield a solution for dosing. The rats were dosed intravenously (IV) at 1 mg/kg (1 mL/kg) via foot dorsal vein (N=3) or orally (PO) at 10 mg/kg (10 mL/kg) via oral gavage (N=3).
Blood collection: The animals were restrained manually, and approximately 200 μL blood/time point was collected into pre-cooled EDTA-K2 tubes via jugular vein and put on wet ice. The blood sample was centrifuged at 4° C. (2000 g, 5 min) to obtain plasma within 15 min after sample collection. The plasma samples were stored at approximately −70° C. until analysis.

[6] = In vivo pharmacokinetics in dogs; conditions: dog, plasma; male beagle dogs, 1 mg/kg IV and 3 mg/kg PO; read-out: oral bioavailability (F)
Description: In vivo experiments were performed in dogs to evaluate certain calcium channel antagonists of the present disclosure. For instance, Example 15 was evaluated in adult male non-naïve beagle dogs (N=6), 8-10 kg, at 1 mg/kg IV and 3 mg/kg PO. The dogs were given free access to food and water for the IV group, were fasted overnight and fed 4 hr post-dosing for the PO group. The IV group was administered Example 15 via cephalic vein injection. The PO group was administered 3 mg/kg Example 15 by oral gavage. Dosing formulations were prepared at 1 mg/mL in 5% dimethylacetamide, 5% Solutol HS 15, 90% saline prior to use.
Blood collection: The animals were restrained manually, and approximately 0.5 mL blood/time point was collected via cephalic vein into pre-cold EDTA-K2 tubes. Blood samples were chilled on wet ice until centrifuged at 4° C. to obtain plasma within 15 minutes of sample collection.

Cav3.2 = Cav3.2 (Homo sapiens (Human), UniProt O95180); assay: In vitro patch clamp assay (SyncroPatch 384PE); assay type: cell-based; conditions: HEK293 cells
Chain of Cav3.2 (O95180 whole entry): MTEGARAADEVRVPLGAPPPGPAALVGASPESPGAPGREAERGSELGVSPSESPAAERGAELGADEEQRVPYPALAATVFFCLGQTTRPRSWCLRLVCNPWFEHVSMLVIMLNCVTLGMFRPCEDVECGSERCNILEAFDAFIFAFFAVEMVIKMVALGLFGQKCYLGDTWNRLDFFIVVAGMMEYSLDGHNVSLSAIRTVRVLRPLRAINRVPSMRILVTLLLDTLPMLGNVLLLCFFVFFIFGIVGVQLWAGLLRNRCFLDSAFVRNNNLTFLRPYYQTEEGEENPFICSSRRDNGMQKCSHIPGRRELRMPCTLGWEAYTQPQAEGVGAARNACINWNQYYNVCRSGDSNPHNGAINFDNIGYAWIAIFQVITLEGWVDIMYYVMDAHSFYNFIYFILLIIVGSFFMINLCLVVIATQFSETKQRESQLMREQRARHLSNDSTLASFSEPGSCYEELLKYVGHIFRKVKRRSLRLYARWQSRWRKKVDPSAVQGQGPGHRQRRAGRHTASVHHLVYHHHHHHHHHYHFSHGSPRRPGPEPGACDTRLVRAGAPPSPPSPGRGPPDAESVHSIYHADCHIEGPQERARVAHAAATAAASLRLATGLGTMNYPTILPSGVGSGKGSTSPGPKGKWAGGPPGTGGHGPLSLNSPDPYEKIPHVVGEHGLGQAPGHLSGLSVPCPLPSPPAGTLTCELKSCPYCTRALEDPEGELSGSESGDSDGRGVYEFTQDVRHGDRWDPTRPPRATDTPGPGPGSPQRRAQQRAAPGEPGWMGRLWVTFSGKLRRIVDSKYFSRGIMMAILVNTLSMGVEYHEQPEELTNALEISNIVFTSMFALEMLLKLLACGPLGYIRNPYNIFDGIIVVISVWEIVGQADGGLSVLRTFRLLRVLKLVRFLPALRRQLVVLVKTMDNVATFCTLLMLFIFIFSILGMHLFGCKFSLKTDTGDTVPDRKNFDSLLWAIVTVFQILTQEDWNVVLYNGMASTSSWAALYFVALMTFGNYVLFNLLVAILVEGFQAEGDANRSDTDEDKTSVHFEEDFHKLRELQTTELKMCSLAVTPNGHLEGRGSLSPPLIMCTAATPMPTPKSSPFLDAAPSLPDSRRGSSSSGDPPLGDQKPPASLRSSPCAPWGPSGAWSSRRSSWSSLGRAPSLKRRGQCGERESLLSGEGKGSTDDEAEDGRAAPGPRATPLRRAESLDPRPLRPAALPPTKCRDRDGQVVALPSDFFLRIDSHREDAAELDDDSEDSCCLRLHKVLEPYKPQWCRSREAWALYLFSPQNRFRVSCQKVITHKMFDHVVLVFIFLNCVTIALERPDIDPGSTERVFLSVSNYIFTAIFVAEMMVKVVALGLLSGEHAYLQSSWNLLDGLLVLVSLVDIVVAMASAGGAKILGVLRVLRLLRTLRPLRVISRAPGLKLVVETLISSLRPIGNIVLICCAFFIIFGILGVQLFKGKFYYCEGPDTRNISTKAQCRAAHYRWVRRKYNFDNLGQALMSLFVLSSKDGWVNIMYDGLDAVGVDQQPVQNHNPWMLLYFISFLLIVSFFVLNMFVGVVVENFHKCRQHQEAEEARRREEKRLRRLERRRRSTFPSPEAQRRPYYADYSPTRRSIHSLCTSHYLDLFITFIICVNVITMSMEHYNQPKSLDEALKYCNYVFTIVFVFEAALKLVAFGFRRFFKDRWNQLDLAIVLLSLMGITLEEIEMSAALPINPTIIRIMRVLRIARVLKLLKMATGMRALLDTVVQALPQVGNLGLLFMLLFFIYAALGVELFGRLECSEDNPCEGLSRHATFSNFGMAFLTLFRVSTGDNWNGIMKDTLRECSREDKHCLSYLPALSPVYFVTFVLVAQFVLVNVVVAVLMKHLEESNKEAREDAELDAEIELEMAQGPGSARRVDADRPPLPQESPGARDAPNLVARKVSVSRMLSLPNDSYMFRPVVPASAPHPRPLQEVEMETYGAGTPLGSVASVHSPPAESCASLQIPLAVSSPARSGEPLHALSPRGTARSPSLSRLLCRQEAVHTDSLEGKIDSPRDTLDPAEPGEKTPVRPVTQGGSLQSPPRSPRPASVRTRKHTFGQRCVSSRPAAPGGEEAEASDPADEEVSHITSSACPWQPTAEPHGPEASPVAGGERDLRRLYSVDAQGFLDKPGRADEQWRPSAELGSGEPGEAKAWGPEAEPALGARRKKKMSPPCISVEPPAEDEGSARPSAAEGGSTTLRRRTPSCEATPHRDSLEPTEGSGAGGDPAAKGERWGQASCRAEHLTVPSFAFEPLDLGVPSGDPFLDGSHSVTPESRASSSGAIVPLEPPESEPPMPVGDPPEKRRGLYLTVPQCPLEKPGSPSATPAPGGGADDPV
Description: Patch clamp assays were performed at Charles River. HEK293 cells were cultured in Dulbecco's Modified Eagle Medium/Nutrient Mixture F-12 (D-MEM/F-12) supplemented with 10% fetal bovine serum, 100 U/mL penicillin G sodium, 100 μg/mL streptomycin sulfate and 500 μg/mL G418. Before testing, cells in culture dishes were washed twice with Hank's Balanced Salt Solution, treated with Accutase™ and re-suspended in the culture media (˜20×10^6 cells in 20 mL). Cells in suspension were allowed to recover for 10 minutes in tissue culture incubator set at 37° C. in a humidified 95% air: 5% CO2 atmosphere. Immediately before use in the SyncroPatch 384PE system (SP384PE), the cells were washed twice in extracellular buffer (HB-PS) to remove the culture medium and re-suspended in 20 mL of HB-PS. Extracellular buffer was loaded into the wells of Nanion 384-well Patch Clamp (NPC-384, 4×M) chip (60 μL per well). Then, cell suspension was pipetted into the wells (20 μL per well) of the chip. After establishment of the whole-cell configuration, membrane currents were recorded using patch clamp amplifier in the SP384PE system.

[7] = rat, compared to Example 16 of U.S. Pat. No. 7,875,636
[8] = rat, plasma, male Sprague-Dawley rats, 1 mg/kg IV, read-out: Mean (ng/mL) after 1 mg/kg IV dose
[9] = rat, plasma, male Sprague-Dawley rats, 10 mg/kg PO, read-out: Mean (ng/mL) after 10 mg/kg PO dose

SMILES: COC(=O)C1=C(C)NC(C)=C(C(=O)OC2CCCN(Cc3ccccc3)C2)C1c1cccc([N+](=O)[O-])c1 (centres unmarked) [Benidipine, 1,4-dihydro-2,6-dimethyl-4-(3-nitrophenyl)-3,5-pyridine-dicarboxylic acid methyl 1-(phenylmethyl)-3-piperidinyl ester]
Miro1 Lowering (Miro1 [1]): YES | locomotor decline / locomotion deficits (mutant SNCA flies): significantly improved locomotor decline | locomotor decline / locomotion deficits (mutant SNCA flies; listed as benidipine): rescuing locomotor deficits | IC50 (Miro1 [2]): 2560 nM

brain penetration ([4]; IV and PO experiments): measurable brain penetration | concentration at 4 h ([4]; 1 mg/kg IV): > 100 ng/mL | concentration at 4 h ([4]; 10 mg/kg PO): > 1000 ng/mL | Mean (ng/mL) after 1 mg/kg IV dose ([5]; male Sprague-Dawley rats, 1 mg/kg IV, 24 hr, BQL = below quantitation level): BQL | AUC [5, 7]: higher | Cmax [5, 7]: higher | half-life (t1/2) [5, 7]: about two-fold higher | concentration at 0.25 h [5, 8]: 890 ng/mL | concentration at 0.5 h [5, 8]: 764 ng/mL | concentration at 1 h [5, 8]: 621 ng/mL | concentration at 2 h [5, 8]: 423 ng/mL | concentration at 4 h [5, 8]: 193 ng/mL | concentration at 8 h [5, 8]: 26.3 ng/mL | concentration at 12 h [5, 8]: 4.42 ng/mL | concentration at 0.25 h [5, 9]: 4110 ng/mL | concentration at 0.5 h [5, 9]: 4510 ng/mL | concentration at 1 h [5, 9]: 4710 ng/mL | concentration at 2 h [5, 9]: 5440 ng/mL | concentration at 4 h [5, 9]: 4070 ng/mL | concentration at 8 h [5, 9]: 1240 ng/mL | concentration at 12 h [5, 9]: 329 ng/mL | concentration at 24 h ([5]; rat, plasma, male Sprague-Dawley rats, 10 mg/kg PO, 24 hr, read-out: Mean (ng/mL) after 10 mg/kg PO dose): 2.49 ng/mL | bioavailability [6]: > 50% | IC50 (Cav3.2): 163 nM
SMILES: C[C@@H](NC(=O)Cc1ccc(C(F)(F)F)cc1)c1cc2cnn(CC(F)(F)F)c2cn1 [Example 15, (R)—N-(1-(1-(2,2,2-trifluoroethyl)-1H-pyrazolo[3,4-c]pyridin-5-yl)ethyl)-2-(4-(trifluoromethyl)phenyl)acetamide]
rescue of Miro1 deficit (Miro1 [3]; P301L tau donor fibroblasts in response to FCCP): completely rescued Miro1 reduction deficit; also recorded: dose-dependent rescue of Miro1 deficit | IC50 (Miro1 [3]; P301L tau donor fibroblasts, 6 hrs pre-treatment, FCCP 14 hours, read-out: IC50, rescue of Miro1 reduction deficit): 584 nM

SMILES: CC(C)c1ccc(CC(=O)N[C@H](C)c2ccc(OCC(F)(F)F)cn2)cc1 [MK-8998, (R)-2-(4-Isopropylphenyl)-N-(1-(5-(2,2,2-trifluoroethoxy)pyridin-2-yl)ethyl)acetamide]
Miro1 Lowering (Miro1 [1]): YES | IC50 (Miro1 [2]): 693 nM
